Laboratory results as given in ChEMBL document CHEMBL3885861, “Open TG-GATES”.

Species on record: Rattus norvegicus
Assay: Open TG-GATES - Regimen: Single
Format: toxicity, organism-based, Sprague-Dawley
Parameters: regimen Single, gender Male, age 6 weeks
Settings: in vivo, po, 100 mg/kg, route gavage, dose level Middle; for APTT / Bas / Eos / Fbg / Hb / Ht / Lym / MCH / MCHC / MCV / Mono / Neu / PT / Plat / RBC / Ret / WBC: tissue Blood; for KIDNEY_L / KIDNEY_R / KIDNEY_TOTAL: tissue Kidney; for LIVER: tissue Liver; for A/G / ALP / ALT / AST / BUN / CRE / Ca / Cl / DBIL / GLC / IP / K / LDH / Na / PL / RALB / TBIL / TC / TG / TP / gamma-GTP: tissue Plasma

Structure (SMILES): C[C@]12CCC(=O)C=C1CC[C@@H]1[C@@H]2CC[C@@]2(C)[C@H]1CC[C@]2(C)O [METHYLTESTOSTERONE]
- TERMINAL_BW (3 h): 202.8 g
- APTT (3 h): 15.1 s
- Bas (3 h): 0%
- Eos (3 h): 1%
- Fbg (3 h): 298.8 mg/dL
- Hb (3 h): 12.9 g/dL
- Ht (3 h): 37.9%
- Lym (3 h): 72.2%
- MCH (3 h): 22.2 pg
- MCHC (3 h): 34.1%
- MCV (3 h): 65 fL
- Mono (3 h): 4.2%
- Neu (3 h): 22.4%
- PT (3 h): 13.1 s
- Plat (3 h): 111.5 x10_4/uL
- RBC (3 h): 582.8 x10_4/ul
- Ret (3 h): 8.9%
- WBC (3 h): 65.4 x10_2/uL
- KIDNEY_L (3 h): 0.9 g
- KIDNEY_R (3 h): 0.9 g
- KIDNEY_TOTAL (3 h): 1.8 g
- LIVER (3 h): 9.3 g
- A/G (3 h): 0.9
- ALP (3 h): 1276.2 IU/L
- ALT (3 h): 45.6 IU/L
- AST (3 h): 74 IU/L
- BUN (3 h): 11 mg/dL
- CRE (3 h): 0.2 mg/dL
- Ca (3 h): 11 mg/dL
- Cl (3 h): 106.2 meq/L
- DBIL (3 h): 0.01 mg/dL
- GLC (3 h): 184.8 mg/dL
- IP (3 h): 9.6 mg/dL
- K (3 h): 4.3 meq/L
- LDH (3 h): 73.8 IU/L
- Na (3 h): 141.2 meq/L
- PL (3 h): 136.2 mg/dL
- RALB (3 h): 2.5 g/dL
- TBIL (3 h): 0.042 mg/dL
- TC (3 h): 74 mg/dL
- TG (3 h): 63 mg/dL
- TP (3 h): 5.4 g/dL
- gamma-GTP (3 h): 1 IU/L
- TERMINAL_BW (6 h): 202.3 g
- APTT (6 h): 16.9 s
- Bas (6 h): 0%
- Eos (6 h): 1%
- Fbg (6 h): 274.4 mg/dL
- Hb (6 h): 13 g/dL
- Ht (6 h): 37.9%
- Lym (6 h): 74.4%
- MCH (6 h): 21.5 pg
- MCHC (6 h): 34.3%
- MCV (6 h): 62.6 fL
- Mono (6 h): 3.6%
- Neu (6 h): 20.8%
- PT (6 h): 13.4 s
- Plat (6 h): 103.9 x10_4/uL
- RBC (6 h): 606.6 x10_4/ul
- Ret (6 h): 8.3%
- WBC (6 h): 68.3 x10_2/uL
- KIDNEY_L (6 h): 0.9 g
- KIDNEY_R (6 h): 0.9 g
- KIDNEY_TOTAL (6 h): 1.8 g
- LIVER (6 h): 8.3 g
- A/G (6 h): 0.9
- ALP (6 h): 1515.6 IU/L
- ALT (6 h): 38 IU/L
- AST (6 h): 75.6 IU/L
- BUN (6 h): 9.4 mg/dL
- CRE (6 h): 0.2 mg/dL
- Ca (6 h): 10.7 mg/dL
- Cl (6 h): 107.4 meq/L
- DBIL (6 h): 0.014 mg/dL
- GLC (6 h): 181.6 mg/dL
- IP (6 h): 9.8 mg/dL
- K (6 h): 4.3 meq/L
- LDH (6 h): 56 IU/L
- Na (6 h): 141.2 meq/L
- PL (6 h): 126.4 mg/dL
- RALB (6 h): 2.5 g/dL
- TBIL (6 h): 0.048 mg/dL
- TC (6 h): 64 mg/dL
- TG (6 h): 49.4 mg/dL
- TP (6 h): 5.3 g/dL
- gamma-GTP (6 h): 1.2 IU/L
- TERMINAL_BW (9 h): 203.2 g
- APTT (9 h): 16.2 s
- Bas (9 h): 0%
- Eos (9 h): 1%
- Fbg (9 h): 296 mg/dL
- Hb (9 h): 13.2 g/dL
- Ht (9 h): 38.4%
- Lym (9 h): 76.8%
- MCH (9 h): 21.5 pg
- MCHC (9 h): 34.3%
- MCV (9 h): 62.9 fL
- Mono (9 h): 2.8%
- Neu (9 h): 18.8%
- PT (9 h): 13.5 s
- Plat (9 h): 112.3 x10_4/uL
- RBC (9 h): 611.6 x10_4/ul
- Ret (9 h): 8.1%
- WBC (9 h): 69 x10_2/uL
- KIDNEY_L (9 h): 0.9 g
- KIDNEY_R (9 h): 0.8 g
- KIDNEY_TOTAL (9 h): 1.7 g
- LIVER (9 h): 8.1 g
- A/G (9 h): 0.9
- ALP (9 h): 1516.6 IU/L
- ALT (9 h): 37.8 IU/L
- AST (9 h): 70.2 IU/L
- BUN (9 h): 8.2 mg/dL
- CRE (9 h): 0.2 mg/dL
- Ca (9 h): 10.5 mg/dL
- Cl (9 h): 107.6 meq/L
- DBIL (9 h): 0.016 mg/dL
- GLC (9 h): 177.6 mg/dL
- IP (9 h): 10.4 mg/dL
- K (9 h): 4.3 meq/L
- LDH (9 h): 69.4 IU/L
- Na (9 h): 141.8 meq/L
- PL (9 h): 119.2 mg/dL
- RALB (9 h): 2.5 g/dL
- TBIL (9 h): 0.046 mg/dL
- TC (9 h): 53.6 mg/dL
- TG (9 h): 89.8 mg/dL
- TP (9 h): 5.3 g/dL
- gamma-GTP (9 h): 1.2 IU/L
- TERMINAL_BW (24 h): 205.5 g
- APTT (24 h): 16.9 s
- Bas (24 h): 0%
- Eos (24 h): 1%
- Fbg (24 h): 278.2 mg/dL
- Hb (24 h): 13.1 g/dL
- Ht (24 h): 38.5%
- Lym (24 h): 77.6%
- MCH (24 h): 21.5 pg
- MCHC (24 h): 34.1%
- MCV (24 h): 62.9 fL
- Mono (24 h): 3%
- Neu (24 h): 18.2%
- PT (24 h): 13.3 s
- Plat (24 h): 117.9 x10_4/uL
- RBC (24 h): 613 x10_4/ul
- Ret (24 h): 7.7%
- WBC (24 h): 94.4 x10_2/uL
- KIDNEY_L (24 h): 0.9 g
- KIDNEY_R (24 h): 0.9 g
- KIDNEY_TOTAL (24 h): 1.8 g
- LIVER (24 h): 9.5 g
- A/G (24 h): 0.9
- ALP (24 h): 1929.2 IU/L
- ALT (24 h): 51.2 IU/L
- AST (24 h): 76.2 IU/L
- BUN (24 h): 14.8 mg/dL
- CRE (24 h): 0.2 mg/dL
- Ca (24 h): 11.1 mg/dL
- Cl (24 h): 105.6 meq/L
- DBIL (24 h): 0.022 mg/dL
- GLC (24 h): 189.2 mg/dL
- IP (24 h): 8.5 mg/dL
- K (24 h): 4.3 meq/L
- LDH (24 h): 97.8 IU/L
- Na (24 h): 140.6 meq/L
- PL (24 h): 142 mg/dL
- RALB (24 h): 2.6 g/dL
- TBIL (24 h): 0.032 mg/dL
- TC (24 h): 65.4 mg/dL
- TG (24 h): 141 mg/dL
- TP (24 h): 5.6 g/dL
- gamma-GTP (24 h): 1.4 IU/L
